Laboratory results reported in PMC12920294, “Optimizing uPAR-targeting radiopeptides for improved tissue distribution: progress towards radionuclide therapy” (European Journal of Nuclear Medicine and Molecular Imaging, 2025).
Where two headings read alike, the source gives them in different places.

Key:
[1] = test system: HEK-uPAR xenograft-bearing mice; conditions: mouse, in vivo
Protocol: (§1) HEK-uPAR xenografted mice were injected with the respective radiopeptide (5 MBq, 0.5 nmol/mouse, 100 µL 0.9% NaCl containing 0.05% BSA) and sacrificed at 4 h and 24 h after injection. […] The tissues and organs of interest were collected, weighed and counted for activity using a γ-counter (Wallac Wizard 1480, PerkinElmer). […] The results were presented as the average ± SD of n = 3 mice. The time-activity curves were determined for the uptake of [^177Lu]Lu-DOTA-AE105 and [^177Lu]Lu-uPAR-11 in the blood, HEK-uPAR xenografts, kidneys and liver based on non-decay corrected biodistribution data. For the blood, the initial uptake (t = 0) was set as 50% IA/g assuming a blood volume of 2 mL for CD1 nude mice. The initial uptake value (t = 0) for all other organs and tissues was set as 0% IA/g. […] The area under the curves over 48 h after injection (AUC0h→48 h) was calculated using GraphPad Prism software (version 10.1.1). Statistical analyses were performed by applying a one-way ANOVA test with a Dunnet’s multiple comparison post‐test to compare the data of the new radiopeptides with those of [^177Lu]Lu-DOTA-AE105 and a Tukey’s multiple comparisons post‐test to compare the novel radiopeptides among them. A p-value of < 0.05 was considered a statistically significant difference using GraphPad Prism software (version 10.1.1).

in vivo = conditions: CD1 nude, mouse, 0.5 nmol/mouse, total radioactivity
Protocol: as §1

[2] = format: in vitro ADME; conditions: 1 µM
Protocol: The ^177Lu-labeled peptides (50 MBq/nmol) were incubated in mouse or human blood plasma (10 MBq/200 µL) over an incubation period of 24 h at 37 °C. Aliquots and control samples of the radiopeptides diluted in saline were analyzed after 1 h, 4 h and 24 h using thin layer chromatography (TLC) as previously reported (Supplementary Material). The distribution coefficients (logD values) of the ^177Lu-labeled peptides (50 MBq/nmol) were determined using a shake-flask method according to a previously published procedure (Supplementary Material).
Methods: A sample of each radiopeptide (50 MBq/nmol) was added to mouse blood plasma (Lot: 32321, Rockland Immunochemicals Inc., USA) or to human blood plasma (Stiftung Blutspende SRK Aargau-Solothurn, Switzerland) to obtain an activity concentration of 10 MBq/200 µL. The test samples were incubated at 37 °C for up to 24 h. Control samples referred to the radiopeptides which were instead diluted in saline at an activity concentration of 10 MBq/200 µL. Aliquots of each sample (2 µL, ~100 kBq) were taken after 1 h, 4 h and 24 h and investigated by means of thin layer chromatography (TLC). The employed method involved reversed-phase TLC plates (MERCK Analytical Chromatography, TLC Silica gel 60 RP-18 F254s) as stationary phase and ACN/citrate buffer (3:7; v/v; pH 5.5) as mobile phase. After the eluent reached the front line, the TLC plates were dried and exposed to a phosphor screen (Super resolution screen PSR10450013, PerkinElmer) for 1 min. The respective screen was developed using a storage phosphor system (Cyclone Plus, PerkinElmer) and analyzed using the OptiQuant Software (version 5.0, Bright Instrument Co Ltd., PerkinElmer).

[3] = test system: HEK-uPAR xenograft-bearing mice; conditions: mouse, in vivo; remark: listed apart in the source
Protocol: Single-photon emission computed tomography/computed tomography (SPECT/CT) experiments were performed using a small-animal SPECT/CT camera (NanoSPECT/CTTM, Mediso Medical Imaging Systems, Budapest, Hungary) as described previously (Supplementary Material). HEK-uPAR xenografted nude mice were scanned at 1 h, 4 h, 24 h […] after injection of the respective radiopeptide (25 MBq, 0.5 nmol, in 100 μL 0.9% NaCl containing 0.05% bovine serum albumin (BSA)) The images were prepared using VivoQuant post-processing software (version 3.5, inviCRO Imaging Services and Software, Boston, USA). A Gauss post-reconstruction filter (full width at half maximum, 1.0 mm) was applied and the scale of activity was set as indicated on the images (minimum value = 0.2 Bq/voxel, maximum value = 20 Bq/voxel). Methods: SPECT/CT experiments were performed with CD1 nude mice (Crl:CD1-Foxn1^nu) approximately 3-9 weeks after HEK-uPAR cell inoculation. The mice were scanned 1 h, 4 h and 24 h post injection (p.i.) of the respective radiopeptide (25 MBq, 0.5 nmol, 100 μL, diluted in 0.9% NaCl containing 0.05% bovine serum albumin (BSA)). Imaging studies were performed using a four-head, multiplexing, multi-pinhole small-animal SPECT/CT camera (NanoSPECT/CT^TM, Mediso Medical Imaging Systems, Budapest, Hungary). Each head was outfitted with a tungsten-based aperture of nine 1.4 mm-diameter pinholes and a thickness of 10 mm. CT scans of 7-9 min duration were followed by SPECT scans of 45-50 min. The images were acquired using Nucline Software (version 10.2, Mediso Ltd., Budapest, Hungary). The real-time CT reconstruction used a cone-beam filtered backprojection. The reconstruction of SPECT data was performed with HiSPECT software (version 1.4.3049, […] GmbH, Göttingen, Germany) using γ-energies of 56.1 keV (± 10%), 112.9 keV (± 10%) and 208.4 keV (± 10%) for lutetium-177. The images were prepared using VivoQuant post-processing software (version 3.5, inviCRO Imaging Services and Software, Boston, USA). A Gauss post-reconstruction filter (full width at half maximum, 1.0 mm) was applied and the scale of activity was set as indicated on the images (minimum value = 0.2 Bq/voxel, maximum value = 20 Bq/voxel).

AUC0h→48h, HEK-uPAR xenograft [1]: 410 ± 21 % IA/g*h
AUC0h→48h, blood [1]: 109 ± 6 % IA/g*h
AUC0h→48h, kidneys [1]: 103 ± 5 % IA/g*h
AUC0h→48h, liver [1]: 38 ± 2 % IA/g*h
Blood AUC0h→48h relative to [177Lu]Lu-DOTA-AE105 [1]: 3.9 fold
HEK-uPAR xenograft AUC0h→48h relative to [177Lu]Lu-DOTA-AE105 [1]: 16 fold
Kidneys AUC0h→48h relative to [177Lu]Lu-DOTA-AE105 [1]: ~ 1.7 fold
Liver AUC0h→48h relative to [177Lu]Lu-DOTA-AE105 [1]: ~ 5.5 fold
Xenograft-to-blood AUC0h→48h ratio relative to [177Lu]Lu-DOTA-AE105 [1]: 4.2 fold
tissue uptake at 1 h (in vivo; Blood uptake): 13 ± 2 %ID/g
tissue uptake at 4 h (in vivo; Blood uptake): 5 ± 0.6 %ID/g
tissue uptake at 24 h (in vivo; Blood uptake): < 0.03 %ID/g
tissue uptake at 48 h (in vivo; Blood uptake): < 0.03 %ID/g
tissue uptake at 1 h (in vivo; Bone uptake): 1.7 ± 0.4 %ID/g
tissue uptake at 4 h (in vivo; Bone uptake): 0.73 ± 0.06 %ID/g
tissue uptake at 24 h (in vivo; Bone uptake): 0.19 ± 0.03 %ID/g
tissue uptake at 48 h (in vivo; Bone uptake): 0.11 ± 0.02 %ID/g
tissue uptake at 1 h (in vivo; Brain uptake): 0.28 ± 0.03 %ID/g
tissue uptake at 4 h (in vivo; Brain uptake): 0.12 ± 0.23 %ID/g
tissue uptake at 24 h (in vivo; Brain uptake): < 0.03 %ID/g
tissue uptake at 48 h (in vivo; Brain uptake): < 0.03 %ID/g
tissue uptake at 1 h (in vivo; HEK-uPAR xenograft uptake): 13 ± 2 %ID/g
tissue uptake at 4 h (in vivo; HEK-uPAR xenograft uptake): 16 ± 2 %ID/g
tissue uptake at 24 h (in vivo; HEK-uPAR xenograft uptake): 7.9 ± 0.9 %ID/g
tissue uptake at 48 h (in vivo; HEK-uPAR xenograft uptake): 5.3 ± 0.7 %ID/g
tissue uptake at 1 h (in vivo; Heart uptake): 4.9 ± 0.3 %ID/g
tissue uptake at 4 h (in vivo; Heart uptake): 1.8 ± 0.2 %ID/g
tissue uptake at 24 h (in vivo; Heart uptake): 0.12 ± 0.02 %ID/g
tissue uptake at 48 h (in vivo; Heart uptake): 0.08 ± 0.01 %ID/g
tissue uptake at 1 h (in vivo; Intestines uptake): 1.8 ± 0.2 %ID/g
tissue uptake at 4 h (in vivo; Intestines uptake): 0.93 ± 0.11 %ID/g
tissue uptake at 24 h (in vivo; Intestines uptake): 0.19 ± 0.01 %ID/g
tissue uptake at 48 h (in vivo; Intestines uptake): 0.14 ± 0.03 %ID/g
tissue uptake at 1 h (in vivo; Kidneys uptake): 6.8 ± 0.9 %ID/g
tissue uptake at 4 h (in vivo; Kidneys uptake): 4 ± 0.4 %ID/g
tissue uptake at 24 h (in vivo; Kidneys uptake): 1.3 to 1.7 %ID/g
tissue uptake at 48 h (in vivo; Kidneys uptake): 1.1 ± 0.1 %ID/g
tissue uptake at 1 h (in vivo; Liver uptake): 4.5 ± 0.3 %ID/g
tissue uptake at 4 h (in vivo; Liver uptake): 1.8 ± 0.2 %ID/g
tissue uptake at 24 h (in vivo; Liver uptake): 0.33 ± 0.03 %ID/g
tissue uptake at 48 h (in vivo; Liver uptake): 0.25 ± 0.02 %ID/g
tissue uptake at 1 h (in vivo; Lung uptake): 7 ± 1.3 %ID/g
tissue uptake at 4 h (in vivo; Lung uptake): 3.1 ± 0.2 %ID/g
tissue uptake at 24 h (in vivo; Lung uptake): 0.29 ± 0.08 %ID/g
tissue uptake at 48 h (in vivo; Lung uptake): 0.17 ± 0.02 %ID/g
tissue uptake at 1 h (in vivo; Muscle uptake): 1.4 ± 0.3 %ID/g
tissue uptake at 4 h (in vivo; Muscle uptake): 0.63 ± 0.09 %ID/g
tissue uptake at 24 h (in vivo; Muscle uptake): 0.05 %ID/g
tissue uptake at 48 h (in vivo; Muscle uptake): 0.04 ± 0.01 %ID/g
tissue uptake at 1 h (in vivo; Pancreas uptake): 1.7 ± 0.2 %ID/g
tissue uptake at 4 h (in vivo; Pancreas uptake): 0.69 ± 0.05 %ID/g
tissue uptake at 24 h (in vivo; Pancreas uptake): 0.09 ± 0.02 %ID/g
tissue uptake at 48 h (in vivo; Pancreas uptake): 0.07 ± 0.02 %ID/g
tissue uptake at 1 h (in vivo; Salivary glands uptake): 2.9 ± 0.5 %ID/g
tissue uptake at 4 h (in vivo; Salivary glands uptake): 1.3 ± 0.2 %ID/g
tissue uptake at 24 h (in vivo; Salivary glands uptake): 0.17 ± 0.02 %ID/g
tissue uptake at 48 h (in vivo; Salivary glands uptake): 0.18 ± 0.04 %ID/g
tissue uptake at 1 h (in vivo; Spleen uptake): 2.2 ± 0.3 %ID/g
tissue uptake at 4 h (in vivo; Spleen uptake): 1.1 ± 0.1 %ID/g
tissue uptake at 24 h (in vivo; Spleen uptake): 0.49 ± 0.05 %ID/g
tissue uptake at 48 h (in vivo; Spleen uptake): 0.37 ± 0.05 %ID/g
tissue uptake at 1 h (in vivo; Stomach uptake): 1.8 ± 0.5 %ID/g
tissue uptake at 4 h (in vivo; Stomach uptake): 0.75 ± 0.19 %ID/g
tissue uptake at 24 h (in vivo; Stomach uptake): 0.12 ± 0.01 %ID/g
tissue uptake at 48 h (in vivo; Stomach uptake): 0.09 %ID/g
Human blood plasma stability, intact radiopeptide ([2]; 1 h): 99 ± 1%
Mouse blood plasma stability, intact radiopeptide ([2]; 1 h): 99 ± 1%
Human blood plasma stability, intact radiopeptide ([2]; 4 h): 99 ± 1%
Mouse blood plasma stability, intact radiopeptide ([2]; 4 h): 99 ± 1%
Human blood plasma stability, intact radiopeptide ([2]; 24 h): 95 ± 1%
Mouse blood plasma stability, intact radiopeptide ([2]; 24 h): 95 ± 1%
Structure (SMILES): Cc1ccc(CCCC(=O)NCCOCCOCCOCCOCCC(=O)NCCCC[C@H](NC(=O)CN2CCN(CC(=O)O)CCN(CC(=O)O)CCN(CC(=O)O)CC2)C(=O)N[C@@H](CC(=O)O)C(=O)N[C@@H](CC2CCCCC2)C(=O)N[C@@H](Cc2ccccc2)C(=O)N[C@H](CO)C(=O)N[C@H](CCCNC(=N)N)C(=O)N[C@@H](Cc2ccc(O)cc2)C(=O)N[C@@H](CC(C)C)C(=O)N[C@@H](Cc2c[nH]c3ccccc23)C(=O)N[C@@H](CO)C(N)=O)cc1 [[^177Lu]Lu-uPAR-11, metal not drawn]
SPECT/CT: accumulation in HEK-uPAR xenograft [3]: highest at 1 h p.i. and relatively well retained over the following hours
